Data: US9187486B2 (AMGEN INC., priority 2011, dated 2015)

Assays:
Pim-1 = Pim-1 (Homo sapiens (Human), UniProt P11309); assay: Pim-Mn enzyme assay (HTRF, 384-well), Pim-1; assay type: biochemical; conditions: Pim-1 enzyme 5 pM, ATP […], read-out: Pim-1-Mn IC50 IP
Source text: (§1) Full-length human cDNAs encoding Pim-1 (MGC ID 3913552) or Pim-2 (IMAGE ID 5092935) were purchased from Invitrogen, Carlsbad, Calif. These cDNAs were used as templates in PCR reactions to produce full-length DNA clones of the PIMs. Oligonucleotide PCR primers for Pim-1 were 5′-[…]-3′ and 5′-[…]-3′. Oligonucleotide PCR primers for Pim-2 were 5′-[…]-3′ and 5′-[…]-3′. PCR products were digested with BclI and EcoRI for Pim-1 and BamHI and EcoRI for Pim-2 and ligated into a modified baculovirus transfer vector (pFastBac 1) cleaved with BamHI and EcoRI. […]
(§2) The frozen cell pellets were thawed by stirring in chilled lysis buffer (0.05 M HEPES, pH 8.0, 0.25 M NaCl, 0.01 M 2-mercaptoethanol, 10% (w/v) glycerol, 0.5% (v/v) protease inhibitor cocktail (Sigma P-8340) at a ratio of 1 L/200 g cells until homogeneous. The thawed suspension was applied to a microfluidizer at 10,000 PSI to disrupt the cells and the whole lysates were clarified by centrifugation at 50,000×g for 90 min, 4° C. Imidazole was added to the clarified lysate to a final concentration of 2.5 mM and the lysate was mixed with 10 mL of Talon resin (Clontech) and the slurry rocked gently overnight at 4° C. […] Fractions were analyzed by SDS-PAGE and those containing the protein of interest were pooled and concentrated. […] The protein eluted at a retention time indicative of it being monomeric and fractions were analyzed by SDS-PAGE. […]

Pim-2 = Pim-2 (Homo sapiens (Human), UniProt Q9P1W9); assay: Pim-Mn enzyme assay (HTRF, 384-well), Pim-2; assay type: biochemical; conditions: Pim-2 enzyme 0.5 pM, ATP […], read-out: Pim-2-Mn IC50 IP
Pim-2, sequence (Q9P1W9 whole entry): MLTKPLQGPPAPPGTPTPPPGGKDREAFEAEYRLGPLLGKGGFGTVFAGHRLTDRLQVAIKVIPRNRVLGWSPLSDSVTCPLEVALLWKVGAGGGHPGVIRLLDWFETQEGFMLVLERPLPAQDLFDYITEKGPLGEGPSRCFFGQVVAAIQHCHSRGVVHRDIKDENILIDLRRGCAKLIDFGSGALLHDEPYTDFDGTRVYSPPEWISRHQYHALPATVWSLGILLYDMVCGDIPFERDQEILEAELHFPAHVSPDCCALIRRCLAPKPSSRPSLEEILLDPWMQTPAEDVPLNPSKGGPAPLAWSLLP
Source text: as §1, §2

Pim-1, sequence (P11309 whole entry): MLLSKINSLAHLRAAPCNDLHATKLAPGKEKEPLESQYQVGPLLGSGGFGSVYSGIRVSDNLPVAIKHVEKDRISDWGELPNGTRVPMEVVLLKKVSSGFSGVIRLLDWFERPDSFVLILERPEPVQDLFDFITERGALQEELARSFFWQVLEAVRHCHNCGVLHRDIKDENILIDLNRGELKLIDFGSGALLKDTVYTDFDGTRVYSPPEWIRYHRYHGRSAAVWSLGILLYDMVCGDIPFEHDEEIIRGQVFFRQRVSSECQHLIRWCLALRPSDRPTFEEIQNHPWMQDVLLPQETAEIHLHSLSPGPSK

| SMILES | IC50 (Pim-1) | IC50 (Pim-2) |
| --- | --- | --- |
| Cc1noc(C)c1-c1ccncc1Nc1ncc2ccc(-c3c(F)cccc3F)nn12 [Example 106, 2-(2,6-Difluorophenyl)-N-(4-(3,5-dimethylisoxazol-4-yl)pyridin-3-yl)imidazo[1,5-b]pyridazin-7-amine bis(2,2,2-trifluoroacetate)] | 221 nM | > 5000 nM |
| Fc1cccc(F)c1-c1ccc2cnc(Nc3cnccc3C3=CCNCC3)n2n1 [Example 105, 2-(2,6-Difluorophenyl)-N-(1′,2′,3′,6′-tetrahydro-[4,4′-bipyridin]-3-yl)imidazo[1,5-b]pyridazin-7-amine bis(2,2,2-trifluoroacetate)] | 35 nM | 1050 nM |
